This is an account of results in patent US20230374143A1, “A SORTILIN ANTAGONIST FOR USE IN THE PREVENTION OR TREATMENT OF HEARING LOSS” (Insusense ApS, priority 2020, published 2023).

pIC50: −log10 of the molar value.

Test system in one series: not listed separately
The experiment in a line: Poloxamer gelling tests at 20° C. and 37° C. It is filed as physicochemical. The conditions noted are these: 14% poloxamer gel, compound at 1 mg/mL. The text has this:
In a preferred embodiment, the sortilin antagonists herein described may be administered in a gel formulation, preferably a Poloxamer 407 gel formulation. Said formulation may comprise the following excipients, reactants and solvents; Poloxamer 407, 5% glucose, Sodium dihydrogenophosphate, Di-sodium hydrogenophosphate, acetonitrile, trifluoroacetic acid and de-ionized water. Preferably, the gel formulation is a 14% poloxamer solution in diluted pH 7.4 phosphate buffer (0.013M) in deionized water. […] (body temperature), see Table 1 below. […] Accordingly, the aforementioned gel formulation is an appropriate vehicle solution to administer said compounds.
Take `Cc1cccc(NC(=O)c2ccc(C(F)(F)F)cc2C(=O)O)n1` [Example 8, 2-[(6-methylpyridin-2-yl)carbamoyl]-5-(trifluoromethyl)benzoic acid]: the “properties of the poloxamer gel formulation after addition of compound” value is recorded as “unaltered”.

The target of another series is T1, SORT (Homo sapiens, UniProt Q99523).
T1 sequence (Q99523 78-831): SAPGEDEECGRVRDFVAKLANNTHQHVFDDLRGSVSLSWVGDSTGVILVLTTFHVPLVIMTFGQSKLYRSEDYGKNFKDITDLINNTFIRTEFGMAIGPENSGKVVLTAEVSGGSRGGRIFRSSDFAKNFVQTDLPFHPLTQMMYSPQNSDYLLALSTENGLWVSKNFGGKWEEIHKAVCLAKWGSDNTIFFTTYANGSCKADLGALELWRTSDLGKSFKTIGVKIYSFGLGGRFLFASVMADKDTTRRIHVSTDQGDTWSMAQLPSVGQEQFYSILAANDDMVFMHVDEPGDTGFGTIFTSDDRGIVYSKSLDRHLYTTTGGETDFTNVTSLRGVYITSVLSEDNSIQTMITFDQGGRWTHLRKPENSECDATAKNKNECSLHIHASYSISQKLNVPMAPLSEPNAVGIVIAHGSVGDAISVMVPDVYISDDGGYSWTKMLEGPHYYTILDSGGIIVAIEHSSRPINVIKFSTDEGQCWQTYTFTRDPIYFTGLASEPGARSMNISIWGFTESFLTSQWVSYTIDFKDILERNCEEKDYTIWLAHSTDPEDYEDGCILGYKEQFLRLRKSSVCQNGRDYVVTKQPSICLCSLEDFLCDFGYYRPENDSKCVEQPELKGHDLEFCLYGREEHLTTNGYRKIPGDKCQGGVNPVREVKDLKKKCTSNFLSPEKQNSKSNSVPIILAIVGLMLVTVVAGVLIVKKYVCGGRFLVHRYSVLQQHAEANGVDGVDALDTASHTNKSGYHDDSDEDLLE
The experiment in a line: progranulin (PGRN) peptide/SORT homogenous time-resolved fluorescence (HTRF) assay. It is filed as binding. Particulars: SORT 1 nM, biotinylated 18-mer PGRN peptide 4 nM, TR-FRET. The procedure: To determine the IC50s of compounds bound to SORT and thus preventing its interaction with the biotinylated 18-mer PGRN peptide a time-resolved fluorescence resonance energy transfer (TR-FRET) format was used. All test compounds were dissolved in DMSO; the final concentration of DMSO in the reaction buffer was 1%. Compounds were prepared in a ten-point, three-fold serial dilution scheme using an acoustic dispenser. A solution of SORT protein in assay buffer (10 mM HEPES, pH 7.3, 150 mM NaCl, 0.005% Brij-35 and 0.01% BSA, final concentration of SORT 1 nM) was added to each well and pre-incubated with compounds or DMSO vehicle at ambient temperature for 10 min with gentle shaking. Next, biotinylated 18-mer PGRN peptide was added to each well (final concentration 4 nM) and the binding reactions were incubated at ambient temperature for 30 min with gentle shaking. Solutions of SA/Dylight in assay buffer were added to each well, immediately followed by addition of Eu/anti-His in assay buffer. […] Data were analyzed using ABase and a 4-parameter logistic fit based on the Levenberg-Marquardt algorithm.^9
In general terms: Time-resolved FRET reads energy transfer from a long-lived donor to a nearby acceptor.
`CC(C)(C)CC[C@H](NC(=O)c1cc(Cl)cc(Cl)c1)C(=O)O` (single isomer, unassigned) [Example 42] showed a pIC50 of 6.77.

The compound `CC(C)(C)CC[C@H](NC(=O)c1cc(Cl)c[nH]1)C(=O)O` (single isomer, unassigned) [Example 43] gave a pIC50 of 7.05.

`CC(C)(C)CC[C@H](NC(=O)c1ccc(Oc2ccccc2)nc1)C(=O)O` (single isomer, unassigned) [Example 44] gave a pIC50 of 7.70.

Consider `CC(C)(C)c1cc(C(=O)O)n(Cc2ccccc2)n1` [Example 31, 1-benzyl-3-tert-butyl-1H-pyrazole-5-carboxylic acid], for which the pIC50 is 5.70.

Turning to `CC(C)(C)c1cc(C(=O)O)n(Cc2cc(Cl)cc(Cl)c2)n1` [Example 32, 3-tert-butyl-1-[(3,5-dichlorophenyl)methyl]-1H-pyrazole-5-carboxylic acid], the pIC50 is 5.68.

As for `CC(C)(C)c1cc(C(=O)O)n(Cc2ccc(-n3cccn3)nc2)n1` [Example 33, 3-tert-butyl-1-{[6-(1H-pyrazol-1-yl)pyridin-3-yl]methyl}-1H-pyrazole-5-carboxylic acid], the negative logarithm of the IC50 (pIC50) is 5.52.

In turn, `CC(C)(C)c1cc(C(=O)O)n(Cc2ccc(Oc3ccccc3)nc2)n1` [Example 34, 3-tert-butyl-1-[(6-phenoxypyridin-3-yl)methyl]-1H-pyrazole-5-carboxylic acid] showed a pIC50 of 5.68.

Compound `Cn1nc(C(C)(C)C)cc1C(=O)O` [Example 35, 3-tert-butyl-1-methyl-1H-pyrazole-5-carboxylic acid] gave a pIC50 of 5.08.

In the case of `CC(C)(C)c1cc(C(=O)O)n(-c2ccccc2)n1` [Example 36, 3-tert-butyl-1-phenyl-1H-pyrazole-5-carboxylic acid], the negative-log IC50 (pIC50) is 5.12.

For `CC(C)(C)c1cc(C(=O)O)n(CCc2ccccc2)n1` [Example 37, 3-tert-butyl-1-(2-phenylethyl)-1H-pyrazole-5-carboxylic acid], the pIC50 was 5.28.

As to `CC(C)(C)c1cc(C(=O)O)n(Cc2nnc(-c3ccccc3)o2)n1` [Example 38, 3-tert-butyl-1-[(5-phenyl-1,3,4-oxadiazol-2-yl)methyl]-1H-pyrazole-5-carboxylic acid], the pIC50 is 6.31.

As for `CC(C)(C)Cc1cc(C(=O)O)n(Cc2ccccc2)n1` [Example 39, 1-benzyl-3-(2,2-dimethylpropyl)-1H-pyrazole-5-carboxylic acid], the pIC50 was 5.18.

`CC(C)c1cc(C(=O)O)n(CCc2ccccc2)n1` [Example 40, 1-(2-phenylethyl)-3-(propan-2-yl)-1H-pyrazole-5-carboxylic acid] showed a pIC50 of under 4.17.

For `CC(C)(C)CCc1cc(C(=O)O)n(Cc2ccccc2)n1` [Example 41, 1-benzyl-3-(3,3-dimethylbutyl)-1H-pyrazole-5-carboxylic acid], the pIC50 was under 4.17.

As to `CC(C)C[C@H](NC(=O)c1ccc(Cl)c(Cl)c1)C(=O)O` [Example 45, (2S)-2-[(3,4-dichlorophenyl)formamido]-4-methylpentanoic acid], the pIC50 was 5.37.

As to `CC(C)C[C@H](NC(=O)c1cc(Cl)cc(Cl)c1)C(=O)O` [Example 46, (2S)-2-[(3,5-dichlorophenyl)formamido]-4-methylpentanoic acid], the pIC50 is 5.57.

Regarding `CC(C)C[C@H](NC(=O)c1cccc(Cl)c1)C(=O)O` [Example 47, (2S)-2-[(3-chlorophenyl)formamido]-4-methylpentanoic acid], the pIC50 was 5.35.

As to `COc1cccc(C(=O)N[C@@H](CC(C)C)C(=O)O)c1` [Example 48, (2S)-2-[(3-methoxyphenyl)formamido]-4-methylpentanoic acid], the pIC50 was 5.17.

In the case of `CC(C)C[C@H](NC(=O)C(C)(C)Cc1ccc(Cl)cc1)C(=O)O` [Example 49, (2S)-2-{2-[(4-chlorophenyl)methyl]-2-methylpropanamido}-4-methylpentanoic acid], the pIC50 was 5.17.

`CC(C)C[C@H](NC(=O)c1cnn(C)c1)C(=O)O` [Example 50, (2S)-4-methyl-2-[(1-methyl-1H-pyrazol-4-yl)formamido]pentanoic acid] showed a pIC50 of 5.28.

Regarding `CC(C)C[C@H](NC(=O)c1cnc2ccccc2n1)C(=O)O` [Example 51, (2S)-4-methyl-2-[(quinoxalin-2-yl)formamido]pentanoic acid], the pIC50 was 5.20.

In the case of `CC(C)C[C@H](NC(=O)C1CCCC1)C(=O)O` [Example 52, (2S)-2-(cyclopentylformamido)-4-methylpentanoic acid], the pIC50 was 4.60.

On to `CC(C)C[C@H](NC(=O)C1CN(Cc2cc(Cl)cc(Cl)c2)CCO1)C(=O)O` (stereo partly drawn) [Example 53, (2S)-2-({4-[(3,5-dichlorophenyl)methyl]morpholin-2-yl}formamido)-4-methylpentanoic acid], for which the pIC50 was 4.84.

For `C=C(C)C[C@H](NC(=O)c1cc(Cl)cc(Cl)c1)C(=O)O` [Example 54, (2S)-2-[(3,5-dichlorophenyl)formamido]-4-methylpent-4-enoic acid], the pIC50 is 4.77.

`O=C(N[C@@H](CC1CC1)C(=O)O)c1cc(Cl)cc(Cl)c1` [Example 55, (2S)-3-cyclopropyl-2-[(3,5-dichlorophenyl)formamido]propanoic acid]: the pIC50 is 4.97.

Consider `O=C(N[C@@H](CC1CCCCC1)C(=O)O)c1cc(Cl)cc(Cl)c1` [Example 56, (2S)-3-cyclohexyl-2-[(3,5-dichlorophenyl)formamido]propanoic acid], for which the pIC50 is 5.64.

For `CC(C)(C)C[C@H](NC(=O)c1cc(Cl)cc(Cl)c1)C(=O)O` [Example 57, (2S)-2-[(3,5-dichlorophenyl)formamido]-4,4-dimethylpentanoic acid], the pIC50 was 6.46.

`O=C(N[C@@H](CC12CC(C1)C2)C(=O)O)c1cc(Cl)cc(Cl)c1` [Example 58, (2S)-3-{bicyclo[1.1.1]pentan-1-yl}-2-[(3,5-dichlorophenyl)formamido]propanoic acid] showed a pIC50 of 4.74.

Consider `O=C(N[C@@H](Cc1ccccc1)C(=O)O)c1cc(Cl)cc(Cl)c1` [Example 59, (2S)-2-[(3,5-dichlorophenyl)formamido]-3-phenylpropanoic acid], for which the pIC50 was under 4.17.

As for `CC(C)(C)OC[C@H](NC(=O)c1cc(Cl)cc(Cl)c1)C(=O)O` [Example 60, (2S)-3-(tert-butoxy)-2-[(3,5-dichlorophenyl)formamido]propanoic acid], the pIC50 is 5.82.

`CC(OC(C)(C)C)[C@H](NC(=O)c1cc(Cl)cc(Cl)c1)C(=O)O` (stereo partly drawn) [Example 61, (2S)-3-(tert-butoxy)-2-[(3,5-dichlorophenyl)formamido]butanoic acid] gave a pIC50 of under 4.17.

In turn, `CC(C)(C)CC(NC(=O)c1cc(Cl)cc(Cl)c1)c1nn[nH]n1` (centres unmarked) [Example 62, 3,5-dichloro-N-[3,3-dimethyl-1-(2H-1,2,3,4-tetrazol-5-yl)butyl]benzamide] gave a pIC50 of 5.16.

Regarding `CC(C)C[C@H](NC(c1cc(Cl)cc(Cl)c1)C(F)(F)F)C(=O)O` (stereo partly drawn) [Example 63, (2S)-2-{[1-(3,5-dichlorophenyl)-2,2,2-trifluoroethyl]amino}-4-methylpentanoic acid], the pIC50 was 4.97.

Compound `CC(C)(C)C[C@H](NC(=O)c1ccc(Oc2ccccc2)nc1)C(=O)O` [Example 64, (2S)-4,4-dimethyl-2-[(6-phenoxypyridin-3-yl)formamido]pentanoic acid] had a pIC50 of 7.19.

A word on the pIC50: it is the IC50 on a negative log10 scale, so that one unit is a factor of ten. Read a low pIC50 as a large IC50.
